According to PMC12889028, “Discovery and biological evaluation of novel N-aryl-N′-methylbenzodrazides against Schistosoma japonicum in vitro and in vivo” (Microbiology Spectrum, 2025):
Like-named read-outs stand apart in the source and are kept apart here.

Test system: adult worms of S. japonicum (Chinese strain)
Assay: microbe, parasite or virus in culture
Settings: for mortality at 100 µM: Schistosoma japonicum; for Mortality (%) 72 h: 100 μM, adult worms in vitro
Experimental: S. japonicum cercariae (Chinese strain) were acquired from infected Oncomelania hupensis snails (Wuxi Insect Vector Biology Co., Ltd., China) ([28]). ICR mice (6–8 weeks, 22–25 g; Hunan SJA Laboratory Animal Co., Ltd., China) were percutaneously infected via abdominal exposure to 60 ± 5 cercariae. Adult schistosomes were perfused from the hepatic portal system at 35 dpi using a modified Duvall and DeWitt method ([29]). Animals were housed under controlled conditions (22°C ± 1°C, 12 h light/dark cycle) with ad libitum access to feed and water.
Adult S. japonicum worms isolated from ICR mice were maintained in sterile culture medium (2.0 mL) comprising 77% RPMI 1640 (Lanzhou Bailing Biotech Co., Ltd.; pH 7.5, HEPES-buffered), 20% heat-inactivated fetal bovine serum (Lanzhou Minhai Bio-Engineering Co., Ltd.), and 3% penicillin-streptomycin (100×; 10,000 U/mL penicillin, 10,000 μg/mL streptomycin; New Cell & Molecular Biotech Co., Ltd., China). Incubation was performed at 37°C under 5% CO2. Test compounds were dissolved in DMSO as 0.1 M stock solutions; 2.0 μL aliquots were added to worm-containing media (final concentration: 100 μM in 0.1% DMSO). Negative controls received equivalent volumes of vehicle (0.1% DMSO in RPMI 1640). Parasite viability (motor activity, tegumental integrity, survival) was assessed every 12 h for 72 h using an Olympus CKX53 inverted microscope (n ≥ 3 independent replicates).

[1] = 24 h, read-out: Mortality (%) 24 h, 100 μM, 24 h, adult worms in vitro
[2] = 36 h, read-out: Mortality (%) 36 h, 100 μM, 36 h, adult worms in vitro
[3] = 48 h, read-out: Mortality (%) 48 h, 100 μM, 48 h, adult worms in vitro
[4] = 72 h, read-out: Mortality (%) 72 h, 100 μM, 72 h, adult worms in vitro

Structure (SMILES)	mortality at 100 µM [1] [%]	mortality at 100 µM [2] [%]	mortality at 100 µM [3] [%]	mortality at 100 µM [4] [%]	Mortality (%) 72 h (72 h) [%]
CN(NC(=O)c1ccc(Cl)c(Cl)c1)c1ccccc1F [Compound 11]	0	0	0	0	
Cc1cccc(C(=O)NN(C)c2ccc(Cl)c(Cl)c2)c1 [Compound 22]	0	0	0	70	
Cc1ccc(N(C)NC(=O)c2ccc(Cl)c(Cl)c2)cc1 [Compound 1]	0	5	60	> 80	100
CN(NC(=O)c1ccc(Cl)c(Cl)c1)c1cccc(Cl)c1 [Compound 8]	0	0	40	> 80	100
CN(NC(=O)c1ccc(Cl)c(Cl)c1)c1ccc(Cl)c(C(F)(F)F)c1 [Compound 14]	15	25	55	> 80	95
CN(NC(=O)c1ccc(F)c(C(F)(F)F)c1)c1ccc(Cl)c(Cl)c1 [Compound 25]	0	0	30	80	
CN(NC(=O)c1ccc(Cl)cc1)c1ccc(Cl)c(Cl)c1 [Compound 17]	0	5	25	70	
Cc1ccc(C(=O)NN(C)c2ccc(Cl)c(Cl)c2)cc1 [Compound 15]	0	20	35	65	
CN(NC(=O)c1ccc(Br)cc1)c1ccc(Br)cc1 [Compound 30]	0	10	65	100	
CN(NC(=O)c1ccc(F)c(F)c1)c1ccc(Cl)c(Cl)c1 [Compound 24]	0	5	45	> 90	90
CN(NC(=O)c1ccc(Cl)c(Cl)c1)c1ccc(C#N)cc1 [Compound 6]	0	0	0	20	
CN(NC(=O)c1ccc(Cl)c(Cl)c1)c1cccc(Br)c1 [Compound 9]	0	0	15	> 80	85
CN(NC(=O)c1ccc(Br)cc1)c1ccccc1Cl [Compound 39]	0	0	10	20	
CN(NC(=O)c1ccc(C(F)(F)F)cc1)c1ccc(Cl)c(Cl)c1 [Compound 19]	0	0	35	80	
CN(NC(=O)c1cccc(Cl)c1)c1ccc(Cl)c(Cl)c1 [Compound 23]	0	5	40	> 90	95
CN(NC(=O)c1ccc(Br)cc1)c1ccc(C(F)(F)F)cc1 [Compound 31]	0	10	55	75	
COc1ccc(C(=O)NN(C)c2ccc(Cl)c(Cl)c2)cc1 [Compound 16]	0	0	65	> 90	100
CN(NC(=O)c1ccc(Br)cc1)c1ccc(F)cc1 [Compound 28]	0	0	0	0	
CN(NC(=O)c1ccc(Br)cc1)c1ccc(Cl)cc1 [Compound 29]	0	0	0	35	

Structure (SMILES)	mortality at 100 µM [1] [%]	mortality at 100 µM [2] [%]	mortality at 100 µM [3] [%]	mortality at 100 µM [4] [%]	Mortality (%) 72 h (72 h) [%]
COc1ccc(N(C)NC(=O)c2ccc(Br)cc2)cc1 [Compound 27]	0	0	0	0	
CN(NC(=O)c1ccc(Cl)c(Cl)c1)c1ccc(F)cc1 [Compound 3]	0	0	45	> 80	85
Cc1cccc(N(C)NC(=O)c2ccc(Cl)c(Cl)c2)c1 [Compound 7]	0	0	0	0	
CN(NC(=O)c1ccc(Cl)c(Cl)c1)c1ccccc1Cl [Compound 12]	0	0	0	0	
Cc1ccc(N(C)NC(=O)c2ccc(Br)cc2)cc1 [Compound 26]	0	0	10	10	
CN(NC(=O)c1ccc(Br)cc1)c1cc(Cl)cc(Cl)c1 [Compound 40]	0	20	70	100	
CN(NC(=O)c1ccc(Cl)c(Cl)c1)c1ccc(Cl)cc1 [Compound 4]	0	0	0	10	
Cc1cccc(N(C)NC(=O)c2ccc(Br)cc2)c1 [Compound 33]	0	15	40	70	
CN(NC(=O)c1ccc([N+](=O)[O-])cc1)c1ccc(Cl)c(Cl)c1 [Compound 21]	0	0	30	65	
CN(NC(=O)c1ccc(Br)cc1)c1ccccc1F [Compound 38]	0	0	10	10	
CN(NC(=O)c1ccc(Br)cc1)c1ccc(C#N)cc1 [Compound 32]	0	0	0	0	
CN(NC(=O)c1ccc(Cl)c(Cl)c1)c1ccc(Cl)c(Cl)c1 [Compound 13]	0	15	50	> 80	100
CN(NC(=O)c1ccc(Br)cc1)c1cccc(Cl)c1 [Compound 34]	0	0	0	90	
CN(NC(=O)c1ccc(C#N)cc1)c1ccc(Cl)c(Cl)c1 [Compound 20]	0	0	60	> 90	100
CN(NC(=O)c1ccc(Br)cc1)c1cccc(Br)c1 [Compound 35]	0	0	30	60	
COc1ccc(N(C)NC(=O)c2ccc(Cl)c(Cl)c2)cc1 [Compound 2]	0	0	0	0	
CN(NC(=O)c1ccc(Br)cc1)c1cccc(C(F)(F)F)c1 [Compound 36]	0	0	10	80	
Cc1ccccc1N(C)NC(=O)c1ccc(Br)cc1 [Compound 37]	0	0	0	0	
